Ends that are not written are not given here.
How the values were obtained:
UPF1-LIN28A interaction [1] = assay: GST pull-down of MYC-UPF1 with GST-LIN28A in presence of CPP-conjugated peptide; type: cell-based; settings: 293T cells, CPP-peptide 2 μM 12 h, n = 3
Method: (§1) For CPP-conjugated peptide delivery, HeLa, 293T, and PA-1 cells were incubated with CPP-conjugated peptides or CPP-FITC at 2 μM in DMEM with 10% FBS for 12 h a day before cell harvest. hPSCs were treated with CPP-conjugated peptides at 10 μM in mTeSR Plus Medium, and the peptide-containing medium was changed every day over 10 days. The ROCK inhibitor (Tocris Bioscience, Y-27632) treated-hPSCs were dissociated into single cells using Accutase (Merck, SCR005) and differentiated into ectoderm, mesoderm, and endoderm using the STEMdiff Trilineage Differentiation Kit ([…] Technologies, 05230) following the manufacturer’s protocol. Differentiated cells treated with CPP-conjugated peptides were analysed at 0, 3, and 5 days for ectoderm and endoderm, and at 0, 3, and 4 days for mesoderm.
Cells were lysed in ice-cold hypotonic buffer (10 mM Tris-Cl pH 7.5, 10 mM NaCl, 10 mM EDTA, 0.5% Triton X 100, Xpert Protease inhibitor cocktail solution, and Xpert Phosphatase inhibitor cocktail solution (GenDEPOT)). […]
Protein samples were loaded for electrophoresis on sodium dodecyl sulphate (SDS) polyacrylamide gels, followed by Coomassie blue staining or transferred to nitrocellulose membranes (Cytiva) for WB. […] The blots were imaged using ChemiDoc XRS+ System (Bio-Rad) and the greyscale intensity values were quantified using Image Lab 3.0 software (Bio-Rad).

UPF1-LIN28A interaction [2] = assay: Proximity ligation assay (PLA) of UPF1-LIN28A complexes; type: cell-based; settings: LIN28A-overexpressing HeLa and CHA15 cells, n = 3
Method: The in situ proximity ligation assay (PLA) was performed on fixed and permeabilised cells using Duolink In Situ Red kit mouse/rabbit (Sigma-Aldrich, DUO92101), according to the manufacturer’s protocol. Briefly, fixed and permeabilised cells were incubated with a blocking solution for 1 h at 37 °C and then incubated with the following primary antibodies: anti-UPF1 (Cell Signaling Technology, 12040; 1:200) and LIN28A (Cell Signaling Technology, 5930; 1:200) overnight at 4 °C. After incubation, the coverslips were washed twice with 1× buffer A, followed by incubation with PLA probes for 1 h at 37 °C. After washing twice with 1× buffer A for 5 min, the coverslip was incubated with the ligation solution for 30 min at 37 °C. Coverslips were washed twice with 1× buffer A, followed by an amplification step with polymerase for 100 min at 37 °C. Finally, the coverslip was washed twice with 1× buffer B and once with 0.01× buffer B and then mounted in […] with DAPI mounting medium (Vector Laboratories, H1200).
Immunofluorescence staining, proximity ligation assay imaging, and cell-penetrating efficiency of CPP-FITC were imaged with a confocal laser scanning microscope (Leica, TSC SP5) or immunofluorescence microscope (Leica, DM5000B). Z-stacks were captured, with sections spanning the entire cell. […]

CHA15 cells = assay: Flow cytometry of SOX1, DLK1 and LHX2 during ectodermal differentiation (Fig. 7b, Supplementary Fig. 7f); type: cell-based, human; set-up: unit not given here; settings: for DLK1 FACS, mean / LHX2 FACS, mean / SOX1 FACS, mean: mean from t test output, scale differs from set1-set3 values
Method: as §1
To evaluate the relative cell number expressing the indicated proteins, CHA15 cells with the indicated CPP-conjugated peptide were fixed with BD Cytofix Fixation Buffer (BD Biosciences Pharmingen, 554655) followed by permeabilization with 0.1% BSA/PBS solution supplemented with 10% NGS and 0.3% Triton X-100 for 1 h at 4 °C. After washing, cells were incubated with the primary antibodies (OCT4 1:1000, NANOG 1:1000, DLK1 1:1000, SOX2 1:1000, LHX2 1:1000) and then, secondary antibody, Alexa Fluor 488 (1:1000), was applied. The positive cells were determined using flow cytometry (FACSCanto, BD Pharmingen), and data was analysed using the Flow Jo-v10 software program.

[3] = test system: nonsense-mediated mRNA decay (NMD); assay: NMD reporter (Gl, GPx1) mRNA by RT-qPCR in LIN28A-expressing HeLa cells with CPP-peptides (Fig. 5c); type: cell-based; settings: FLAG control (no LIN28A) HeLa, CPP-peptide
[4] = vs. P1, ± SEM, unpaired t test, df=4

Row | Substance | coimmunoprecipitated MYC-UPF1 with GST-LIN28A (UPF1-LIN28A interaction [1]) | PLA signal of UPF1-LIN28A complexes (UPF1-LIN28A interaction [2]) | DLK1 FACS, mean (CHA15 cells) | LHX2 FACS, mean (CHA15 cells) | SOX1 FACS, mean (CHA15 cells) | DLK1 FACS, difference between means ± SEM (CHA15 cells; [4]) | LHX2 FACS, difference between means ± SEM (CHA15 cells; [4]) | SOX1 FACS, difference between means ± SEM (CHA15 cells; [4]) | relative GPx1 mRNA level ([3]; normalised to MUP, replicate set2) | relative Gl mRNA level ([3]; normalised to MUP, replicate set3) | GPx1 mRNA, mean ([3]; mean in t-test output, n = 3) | Gl mRNA, mean ([3]; mean in t-test output, n = 3)
1 | KKKWCRKKKSSADEKRYRALKRTAERELLMNA [CPP-P8, CPP conjugated to P8] | reduced upon CPP-P8 treatment | weaker signals than CPP-P1 or -P2 | – | – | – | – | – | – | – | – | – | –
2 | KKKWCRKKKSSADEKRYRALKRTAERELLMNA [P8] | – | – | 8315 | 9545 | 5506 | 1682 ± 236.3 | 3433 ± 333.3 | -2997 ± 246.0 | – | – | – | –
3 | N-QKLDQKELQLEPM-C [P1, reference compound] | – | – | 6634 | 6112 | 8503 | – | – | – | 1.035 | 1.014 | 0.2656 | 0.4223

Source: PMC10762078, “Role of UPF1-LIN28A interaction during early differentiation of pluripotent stem cells” (Nature Communications, 2024)
